{"source": "paper PMC11320574", "about": "(ACS Infectious Diseases, 2024)", "key": {"[1]": {"assay": "Resistance to breakdown by serum proteases", "format": "in vitro ADME", "details": "human, 25% (v/v) human serum in PBS"}, "P. falciparum 3D7": {"test_system": "P. falciparum 3D7", "assay": "In vitro growth inhibition of P. falciparum 3D7", "format": "cell-based, Plasmodium falciparum", "details": "HC10 of uninfected RBCs relative to Pf IC50 with 5 mg/mL Albumax II supplement"}}, "note": "Positions of bridges follow the written chain, without caps; N, C: chain ends. Residues, ends and D or L forms follow the SMILES beside them."}
{"smiles": "CC[C@H](C)[C@@H]1NC(=O)[C@H](CCCCN)NC(=O)[C@H](CCCCN)NC(=O)[C@H](Cc2ccc(O)cc2)NC(=O)[C@H](CC(C)C)NC(=O)[C@@H]2CCCN2C(=O)[C@H](C)NC(=O)CNC(=O)CNC(=O)[C@H](CO)NC(=O)CNC(=O)CNC(=O)[C@H](CO)NC(=O)[C@H](CCCCN)NC(=O)[C@H](CC(C)C)NC(=O)[C@H](CC(C)C)NC(=O)[C@H](CCCCN)NC(=O)[C@H](CCCCN)NC(=O)[C@H]([C@@H](C)CC)NC(=O)[C@H]([C@@H](C)CC)NC(=O)[C@H](CCCCN)NC(=O)[C@H](CCCCN)NC(=O)[C@H](Cc2ccc(O)cc2)NC(=O)[C@H](CC(C)C)NC(=O)[C@@H]2CCCN2C(=O)CNC(=O)CNC(=O)[C@@H](NC(=O)CN)CSSC[C@@H](C(N)=O)NC(=O)[C@H](CC(C)C)NC(=O)[C@H](CCCCN)NC(=O)[C@H](CCCCN)NC(=O)[C@H]([C@@H](C)CC)NC1=O", "note": "[Peptide 10] (H-GCGGPLYKKIIKKLLKSGGSGGAPLYKKIIKKLC-NH2; disulfide 2-34; N-terminus assumed)", "values": [{"measurement": "remaining at 24 h, 50 μM", "setting": "[1]", "value": 0, "unit": "%"}, {"measurement": "Activity-hemolysis index RBC HC10/ Pf IC50", "setting": "P. falciparum 3D7", "value": "6.5 ± 1.2"}]}
